Data: patent publication US20210040074A1 (The United States of America,as represented by the …, priority 2018, published 2021)

Key:
D5 [1] = target: T1, D5 (Homo sapiens, UniProt P21918); assay: D5R β-arrestin recruitment assay (DiscoverX PathHunter, CHO cells); format: cell-based; design: host or cells: CHO-K1; conditions: for Dopamine D5-β-arrestin Assay: DA + 50 μM PAM, Fold Change EC50: Table 6, 50 μM compound; for D5 Beta-Arrestin: DA + 50 μM PAM, Fold Change EC50: fold change of dopamine EC50, 50 μM compound; for DA + 50 μM PAM, Fold Change EC50: fold change of DA EC50 with 50 μM PAM, Dopamine D5-β-arrestin Assay
Method: (§1) β-arrestin Recruitment Assay. […] Following 18-24 h of incubation, the cells were treated with the indicated concentrations of compound in PBS buffer containing 0.2 mM sodium metabisulfite, and incubated at 37° C. for 90 min. DiscoverX reagent was added to cells according to the manufacturer's protocol, followed by a 60 min incubation in the dark at room temperature. Luminescence was measured on a Hamamatsu FDSS μ-Cell reader (Hamamatsu, Bridgewater, N.J.) and data were collected using the FDSS software.
Each PAM was also examined in the absence of DA as an agonist, as indicated.

human D1R = human D1R (Homo sapiens, UniProt P21728); assay: D1R β-arrestin recruitment assay (DiscoverX PathHunter, CHO-K1 cells); conditions: for Dopamine D1-β-arrestin Assay: DA + 50 μM PAM, Fold Change EC50: Table 5, 50 μM compound; for DA + 50 μM PAM, Fold Change EC50: fold change of DA EC50 with 50 μM PAM, Dopamine D1-β-arrestin Assay
Text: The DiscoverX PathHunter β-Arrestin Assay was used to measure β-arrestin reuitment to the D1R following the manufacturer's instructions.

D4R = target: T2, D4R (Homo sapiens, UniProt P21917); assay: D4 β-arrestin recruitment assay (DiscoverX PathHunter, CHO-K1 cells); format: cell-based; design: inferred from the same PathHunter system described for D1R and D5R; host or cells: CHO-K1; conditions: for Dopamine D4-β-arrestin Assay: DA + 50 μM PAM, Fold Change EC50: Table 7, 50 μM compound; for D4 Beta-Arrestin: DA + 50 μM PAM, Fold Change EC50: fold change of dopamine EC50, 50 μM compound; for DA + 50 μM PAM, Fold Change EC50: fold change of DA EC50 with 50 μM PAM, Dopamine D4-β-arrestin Assay
T2 sequence (P21917 1-419): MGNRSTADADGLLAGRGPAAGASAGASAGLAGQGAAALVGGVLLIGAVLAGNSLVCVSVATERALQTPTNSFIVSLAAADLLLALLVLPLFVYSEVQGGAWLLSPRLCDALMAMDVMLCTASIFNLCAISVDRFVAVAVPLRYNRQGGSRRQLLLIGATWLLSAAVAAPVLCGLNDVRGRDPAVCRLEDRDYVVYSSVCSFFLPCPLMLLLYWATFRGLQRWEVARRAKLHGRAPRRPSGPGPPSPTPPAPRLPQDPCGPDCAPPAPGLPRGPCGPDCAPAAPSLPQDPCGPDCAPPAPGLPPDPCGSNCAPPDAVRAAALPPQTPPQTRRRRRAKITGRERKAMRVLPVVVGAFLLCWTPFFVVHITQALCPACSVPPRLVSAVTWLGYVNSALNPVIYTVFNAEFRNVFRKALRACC
Method: as §1, with “Assay. Agonist-mediated recruitment of β-arrestin-2 to all five DARs was determined using the DiscoveRx PathHunter complementation assay (DiscoverX Inc, Fremont, Calif.), as previously described (Free, et. al., 2014; Conroy, et. al., 2015).” for “Assay.”

D5 [2] = target: T1, D5; assay: D5 cAMP assay; conditions: fold change of dopamine EC50, 50 μM compound
Method: cAMP Accumulation Assay. Assays were performed on D1R-HEK293 (Codex Biosolutions, Gaithersburg, Md.) cells stably expressing the human D1R. HEK293 cell lines were maintained in Dulbecco's modified Eagles medium, supplemented with 10% fetal bovine serum, 100 U/ml penicillin, 100 μg/ml streptomycin, 1 mM sodium pyruvate, and 250 μg/ml G418 and incubated at 37° C., 5% CO2, and 90% humidity. […] After 18-24 h incubation at 37° C., 5% CO2, and 90% humidity, the media was removed and replaced with 5 μL/well PBS. […] Briefly, antibody and working solution was added to each well according to the manufacturer's protocol, and incubated in the dark at room temperature for 60 min. Following incubation, enzyme acceptor reagent was added to the plates and luminescence (RLU) was measured (FDSS μCell, Hamamatsu Photonics K. K., Bridgewater, N.J.) following a 3 h incubation in the dark at room temperature.

Chain of human D1R (P21728 whole entry): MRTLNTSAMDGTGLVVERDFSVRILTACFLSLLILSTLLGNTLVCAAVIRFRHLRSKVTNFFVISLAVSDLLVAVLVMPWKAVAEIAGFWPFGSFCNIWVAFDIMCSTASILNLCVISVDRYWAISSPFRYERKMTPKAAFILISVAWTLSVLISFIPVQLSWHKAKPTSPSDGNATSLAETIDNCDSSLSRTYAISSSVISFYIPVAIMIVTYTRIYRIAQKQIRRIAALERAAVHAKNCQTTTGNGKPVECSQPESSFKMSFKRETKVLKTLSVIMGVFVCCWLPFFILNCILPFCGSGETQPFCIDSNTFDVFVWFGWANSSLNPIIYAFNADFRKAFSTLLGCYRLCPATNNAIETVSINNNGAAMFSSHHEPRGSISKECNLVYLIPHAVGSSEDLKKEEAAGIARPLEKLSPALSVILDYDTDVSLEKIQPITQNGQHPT
T1 sequence (P21918 whole entry): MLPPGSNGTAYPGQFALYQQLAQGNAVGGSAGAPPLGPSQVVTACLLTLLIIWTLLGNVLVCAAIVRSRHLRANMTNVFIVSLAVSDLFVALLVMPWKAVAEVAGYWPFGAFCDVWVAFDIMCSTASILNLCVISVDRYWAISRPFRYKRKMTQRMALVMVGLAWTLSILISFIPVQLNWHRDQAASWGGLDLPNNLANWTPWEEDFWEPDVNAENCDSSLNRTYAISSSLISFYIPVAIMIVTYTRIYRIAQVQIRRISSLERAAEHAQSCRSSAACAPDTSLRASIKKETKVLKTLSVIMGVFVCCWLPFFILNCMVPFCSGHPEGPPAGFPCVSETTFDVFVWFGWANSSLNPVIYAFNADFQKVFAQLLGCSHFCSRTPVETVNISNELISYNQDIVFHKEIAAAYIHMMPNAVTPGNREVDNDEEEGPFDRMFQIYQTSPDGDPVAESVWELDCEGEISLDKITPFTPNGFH

CCCc1nc2c(c(=O)c3ccccc3n2C)c(=O)n1-c1cc(C)cc(C)c1 [R1=3,5-diMePh, R2=n-Propyl, R3=H, X=NMe]
Dopamine D5-β-arrestin Assay: DA + 50 μM PAM, Fold Change EC50 (D5 [1]): 3.81
Dopamine D1-β-arrestin Assay: DA + 50 μM PAM, Fold Change EC50 (human D1R): 14.1
Dopamine D4-β-arrestin Assay: DA + 50 μM PAM, Fold Change EC50 (D4R): 0.95

COc1ccc(-n2c(CC3CCCCC3)nc3c(c(=O)c4ccccc4n3C)c2=O)cc1Cl [Compound 19]
D5 cAMP: DA + 50 μM PAM, Fold Change EC50 (D5 [2]): 1.04
D5 Beta-Arrestin: DA + 50 μM PAM, Fold Change EC50 (D5 [1]): 1.29
D4 Beta-Arrestin: DA + 50 μM PAM, Fold Change EC50 (D4R): 1.78

CC(C)Cc1nc2c(c(=O)c3ccccc3n2C)c(=O)n1-c1ccccc1 [Compound 21]
D5 cAMP: DA + 50 μM PAM, Fold Change EC50 (D5 [2]): 2.22
D5 Beta-Arrestin: DA + 50 μM PAM, Fold Change EC50 (D5 [1]): 4.56
D4 Beta-Arrestin: DA + 50 μM PAM, Fold Change EC50 (D4R): 0.62

Oc1cc2c(cc1O)[C@H]1c3ccccc3CN[C@@H]1CC2 (racemic) [dihydrexidine, reference compound]
Emax (human D1R; CHO-K1, read-out: dihydrexidine Emax): 70.5%

Cc1ccccc1NC(=O)c1c(NC(=O)c2ccncc2)sc2c1CCC(C)C2 (centres unmarked) [R4=NH-2-MePh; R5=NHCO-4-pyridyl; R6=Me]
DA + 50 μM PAM, Fold Change EC50 (D5 [1]): 0.83
DA + 50 μM PAM, Fold Change EC50 (human D1R): 2.09

Cc1ccccc1NC(=O)c1c(NC(=O)c2ccncc2)sc2c1CCC(C)C2 (centres unmarked) [R4=NH-2-MePH; R5=NHCO-4-pyridyl; R6=Me]
DA + 50 μM PAM, Fold Change EC50 (D4R): 1.09

COc1ccc(-n2c(C3CCCC3)nc3c(c(=O)c4ccccc4n3C)c2=O)cc1 [Compound 11]
D5 Beta-Arrestin: DA + 50 μM PAM, Fold Change EC50 (D5 [1]): 4.10
D4 Beta-Arrestin: DA + 50 μM PAM, Fold Change EC50 (D4R): 1.46

CCCc1nc2c(c(=O)c3ccccc3n2C)c(=O)n1C1CCCCCC1 [R1=Cycloheptyl, R2=n-Propyl, R3=H, X=NMe]
Dopamine D5-β-arrestin Assay: DA + 50 μM PAM, Fold Change EC50 (D5 [1]): 7.78
Dopamine D1-β-arrestin Assay: DA + 50 μM PAM, Fold Change EC50 (human D1R): 3.47
Dopamine D4-β-arrestin Assay: DA + 50 μM PAM, Fold Change EC50 (D4R): 0.8

Cn1c2ccccc2c(=O)c2c(=O)n(C3CCCCCC3)c(C3CCCCC3)nc21
Dopamine D5-β-arrestin Assay: DA + 50 μM PAM, Fold Change EC50 (D5 [1]): 1.71
Dopamine D1-β-arrestin Assay: DA + 50 μM PAM, Fold Change EC50 (human D1R): 3.85
Dopamine D4-β-arrestin Assay: DA + 50 μM PAM, Fold Change EC50 (D4R): 0.95

COc1ccc(-n2c(CC(C)C)nc3c(c(=O)c4ccccc4n3C)c2=O)cc1Cl [Compound 8]
D5 Beta-Arrestin: DA + 50 μM PAM, Fold Change EC50 (D5 [1]): 1.53
D4 Beta-Arrestin: DA + 50 μM PAM, Fold Change EC50 (D4R): 1.20

NC(=O)c1c(NC(=O)c2cccnc2)sc2c1CCCC2 [R4=NH2; R5=NHCO-3-pyridyl; R6=H]
DA + 50 μM PAM, Fold Change EC50 (D5 [1]): 1.03
DA + 50 μM PAM, Fold Change EC50 (human D1R): 1.88
DA + 50 μM PAM, Fold Change EC50 (D4R): 1.21

COc1ccc(-n2c(C3CCCCC3)nc3c(c(=O)c4ccccc4n3C)c2=O)cc1 [Compound 27]
D5 Beta-Arrestin: DA + 50 μM PAM, Fold Change EC50 (D5 [1]): 3.35
D4 Beta-Arrestin: DA + 50 μM PAM, Fold Change EC50 (D4R): 1.19

Cn1c2ccccc2c(=O)c2c(=O)n(-c3ccccc3)c(C3CCCC3)nc21 [Compound 24]
D5 cAMP: DA + 50 μM PAM, Fold Change EC50 (D5 [2]): 1.26
D5 Beta-Arrestin: DA + 50 μM PAM, Fold Change EC50 (D5 [1]): 4.16
D4 Beta-Arrestin: DA + 50 μM PAM, Fold Change EC50 (D4R): 1.26

Cc1ccc(-n2c(C3CCCCC3)nc3c(c(=O)c4ccccc4n3C)c2=O)cc1 [Compound 2]
D5 Beta-Arrestin: DA + 50 μM PAM, Fold Change EC50 (D5 [1]): 2.64
D4 Beta-Arrestin: DA + 50 μM PAM, Fold Change EC50 (D4R): 0.64

Cn1c2ccccc2c(=O)c2c(=O)n(-c3ccc(Cl)cc3)c(C3CCCCC3)nc21 [Compound 3]
D5 Beta-Arrestin: DA + 50 μM PAM, Fold Change EC50 (D5 [1]): 2.03
D4 Beta-Arrestin: DA + 50 μM PAM, Fold Change EC50 (D4R): 0.61

Cn1c2ccccc2c(=O)c2c(=O)n(-c3ccccc3)c(-c3ccc(C(C)(C)C)cc3)nc21 [R1=Ph, R2=4-t-BuPh, R3=H, X=NMe]
Dopamine D5-β-arrestin Assay: DA + 50 μM PAM, Fold Change EC50 (D5 [1]): 35.49
Dopamine D1-β-arrestin Assay: DA + 50 μM PAM, Fold Change EC50 (human D1R): 1.33
Dopamine D4-β-arrestin Assay: DA + 50 μM PAM, Fold Change EC50 (D4R): 0.8

Cn1c2ccccc2c(=O)c2c(=O)n(-c3ccc(Cl)cc3)c(CC3CCCCC3)nc21 [Compound 17]
D5 cAMP: DA + 50 μM PAM, Fold Change EC50 (D5 [2]): 1.43
D5 Beta-Arrestin: DA + 50 μM PAM, Fold Change EC50 (D5 [1]): 1.09
D4 Beta-Arrestin: DA + 50 μM PAM, Fold Change EC50 (D4R): 1.38
